# Source: ChEMBL document CHEMBL5055626 (J Med Chem, 2021)
# The source made the active and inactive calls. No cut-off for these calls is given here. Where a SMILES comes first, the peptide text is derived from it. Bridges are numbered along the chain shown (N, C = ends). [ ]: non-standard residue; d: D form. sY = N[C@@H](Cc1ccc(OS(=O)(=O)O)cc1)C(=O)O
# Columns and labels:
# [1] = target: Neuronal acetylcholine receptor; alpha3/beta2 (Rattus norvegicus, UniProt P04757+P12390); test: Antagonist activity at rat alpha3beta2 nAChR expressed in xenopus oocytes assessed as inhibition of Ach- induced response at -70 mV holding potential preincubated for 5 mins followed by Ach stimulation by voltage-clamp based electrophysiological method; format: cell-based, Oocyte
# [2] = target: Neuronal acetylcholine receptor subunit alpha-7 (Rattus norvegicus, UniProt Q05941); test: Antagonist activity at rat alpha7 nAChR expressed in xenopus oocytes assessed as inhibition of Ach- induced response at -70 mV holding potential preincubated for 5 mins followed by Ach stimulation by voltage-clamp based electrophysiological method; format: cell-based, Oocyte
# [3] = Antagonist activity at rat nAChR alpha7 Q141H mutant expressed in xenopus oocytes assessed as inhibition of Ach- induced response at -70 mV holding potential preincubated for 5 mins followed by Ach stimulation by voltage-clamp based electrophysiological method; format: cell-based; conditions: Oocyte
# [4] = Antagonist activity at rat nAChR alpha7 N184S mutant expressed in xenopus oocytes assessed as inhibition of Ach- induced response at -70 mV holding potential preincubated for 5 mins followed by Ach stimulation by voltage-clamp based electrophysiological method; format: cell-based; conditions: Oocyte
# [5] = Antagonist activity at rat nAChR alpha7 K186R mutant expressed in xenopus oocytes assessed as inhibition of Ach- induced response at -70 mV holding potential preincubated for 5 mins followed by Ach stimulation by voltage-clamp based electrophysiological method; format: cell-based; conditions: Oocyte
# [6] = target: Neuronal acetylcholine receptor subunit alpha-7 (Homo sapiens, UniProt P36544); format: cell-based, Oocyte
# [7] = Antagonist activity at human nAChR alpha7 S184N mutant expressed in xenopus oocytes assessed as inhibition of Ach- induced response at -70 mV holding potential preincubated for 5 mins followed by Ach stimulation by voltage-clamp based electrophysiological method; format: cell-based; conditions: Oocyte
# [8] = Antagonist activity at human nAChR alpha7 R186K mutant expressed in xenopus oocytes assessed as inhibition of Ach- induced response at -70 mV holding potential preincubated for 5 mins followed by Ach stimulation by voltage-clamp based electrophysiological method; format: cell-based; conditions: Oocyte
# [9] = Antagonist activity at human nAChR alpha7 S184N/R186K double mutant expressed in xenopus oocytes assessed as inhibition of Ach- induced response at -70 mV holding potential preincubated for 5 mins followed by Ach stimulation by voltage-clamp based electrophysiological method; format: cell-based; conditions: Oocyte
# [10] = target: Nicotinic acetylcholine receptor alpha6/alpha3/beta4 (Homo sapiens, UniProt P30926+P32297+Q15825); test: Antagonist activity at rat alpha6/alpha3beta4 nAChR expressed in xenopus oocytes assessed as inhibition of Ach- induced response at -70 mV holding potential preincubated for 5 mins followed by Ach stimulation by voltage-clamp based electrophysiological method; format: cell-based, Oocyte
# [11] = Antagonist activity at rat alpha6/ alpha3beta2beta3 nAChR expressed in xenopus oocytes assessed as inhibition of Ach- induced response at -70 mV holding potential preincubated for 5 mins followed by Ach stimulation by voltage-clamp based electrophysiological method; format: cell-based; conditions: Oocyte
# [12] = target: Neuronal acetylcholine receptor; alpha2/beta2 (Rattus norvegicus, UniProt P12389+P12390); test: Antagonist activity at rat alpha2beta2 nAChR expressed in xenopus oocytes assessed as inhibition of Ach- induced response at -70 mV holding potential preincubated for 5 mins followed by Ach stimulation by voltage-clamp based electrophysiological method; format: cell-based, Oocyte
# [13] = target: Neuronal acetylcholine receptor; alpha2/beta4 (Rattus norvegicus, UniProt P12389+P12392); test: Antagonist activity at rat alpha2beta4 nAChR expressed in xenopus oocytes assessed as inhibition of Ach- induced response at -70 mV holding potential preincubated for 5 mins followed by Ach stimulation by voltage-clamp based electrophysiological method; format: cell-based, Oocyte
# [14] = target: Neuronal acetylcholine receptor; alpha3/beta4 (Rattus norvegicus, UniProt P04757+P12392); test: Antagonist activity at rat alpha3beta4 nAChR expressed in xenopus oocytes assessed as inhibition of Ach- induced response at -70 mV holding potential preincubated for 5 mins followed by Ach stimulation by voltage-clamp based electrophysiological method; format: cell-based, Oocyte
# [15] = target: Neuronal acetylcholine receptor; alpha4/beta2 (Rattus norvegicus, UniProt P09483+P12390); test: Antagonist activity at rat alpha4beta2 nAChR expressed in xenopus oocytes assessed as inhibition of Ach- induced response at -70 mV holding potential preincubated for 5 mins followed by Ach stimulation by voltage-clamp based electrophysiological method; format: cell-based, Oocyte
# [16] = target: Neuronal acetylcholine receptor; alpha4/beta4 (Rattus norvegicus, UniProt P09483+P12392); test: Antagonist activity at rat alpha4beta4 nAChR expressed in xenopus oocytes assessed as inhibition of Ach- induced response at -70 mV holding potential preincubated for 5 mins followed by Ach stimulation by voltage-clamp based electrophysiological method; format: cell-based, Oocyte
# [17] = target: Nicotinic acetylcholine receptor alpha9/alpha10 (Rattus norvegicus, UniProt P43144+Q9JLB5); test: Antagonist activity at rat alpha9alpha10 nAChR expressed in xenopus oocytes assessed as inhibition of Ach- induced response at -70 mV holding potential preincubated for 5 mins followed by Ach stimulation by voltage-clamp based electrophysiological method; format: cell-based, Oocyte
# [18] = target: Nicotinic acetylcholine receptor alpha9/alpha10 (Rattus norvegicus) (UniProt P43144+Q9JLB5); test: Antagonist activity at rat alpha9alpha10 nAChR expressed in xenopus oocytes assessed as inhibition of Ach- induced response at 10 uM at -70 mV holding potential preincubated for 5 mins followed by Ach stimulation by voltage-clamp based electrophysiological method; format: cell-based; conditions: Oocyte
# [19] = target: Neuronal acetylcholine receptor; alpha2/beta2 (Rattus norvegicus) (UniProt P12389+P12390); test: Antagonist activity at rat alpha2beta2 nAChR expressed in xenopus oocytes assessed as inhibition of Ach- induced response at 10 uM at -70 mV holding potential preincubated for 5 mins followed by Ach stimulation by voltage-clamp based electrophysiological method; format: cell-based; conditions: Oocyte
# [20] = target: Neuronal acetylcholine receptor; alpha2/beta4 (Rattus norvegicus) (UniProt P12389+P12392); test: Antagonist activity at rat alpha2beta4 nAChR expressed in xenopus oocytes assessed as inhibition of Ach- induced response at 10 uM at -70 mV holding potential preincubated for 5 mins followed by Ach stimulation by voltage-clamp based electrophysiological method; format: cell-based; conditions: Oocyte
# [21] = target: Neuronal acetylcholine receptor; alpha3/beta4 (Rattus norvegicus) (UniProt P04757+P12392); test: Antagonist activity at rat alpha3beta4 nAChR expressed in xenopus oocytes assessed as inhibition of Ach- induced response at 10 uM at -70 mV holding potential preincubated for 5 mins followed by Ach stimulation by voltage-clamp based electrophysiological method; format: cell-based; conditions: Oocyte
# [22] = target: Neuronal acetylcholine receptor; alpha4/beta2 (Rattus norvegicus) (UniProt P09483+P12390); test: Antagonist activity at rat alpha4beta2 nAChR expressed in xenopus oocytes assessed as inhibition of Ach- induced response at 10 uM at -70 mV holding potential preincubated for 5 mins followed by Ach stimulation by voltage-clamp based electrophysiological method; format: cell-based; conditions: Oocyte
# [23] = target: Neuronal acetylcholine receptor; alpha4/beta4 (Rattus norvegicus) (UniProt P09483+P12392); test: Antagonist activity at rat alpha4beta4 nAChR expressed in xenopus oocytes assessed as inhibition of Ach- induced response at 10 uM at -70 mV holding potential preincubated for 5 mins followed by Ach stimulation by voltage-clamp based electrophysiological method; format: cell-based; conditions: Oocyte
# Chain of Neuronal acetylcholine receptor; alpha3/beta2 (P04757 whole entry): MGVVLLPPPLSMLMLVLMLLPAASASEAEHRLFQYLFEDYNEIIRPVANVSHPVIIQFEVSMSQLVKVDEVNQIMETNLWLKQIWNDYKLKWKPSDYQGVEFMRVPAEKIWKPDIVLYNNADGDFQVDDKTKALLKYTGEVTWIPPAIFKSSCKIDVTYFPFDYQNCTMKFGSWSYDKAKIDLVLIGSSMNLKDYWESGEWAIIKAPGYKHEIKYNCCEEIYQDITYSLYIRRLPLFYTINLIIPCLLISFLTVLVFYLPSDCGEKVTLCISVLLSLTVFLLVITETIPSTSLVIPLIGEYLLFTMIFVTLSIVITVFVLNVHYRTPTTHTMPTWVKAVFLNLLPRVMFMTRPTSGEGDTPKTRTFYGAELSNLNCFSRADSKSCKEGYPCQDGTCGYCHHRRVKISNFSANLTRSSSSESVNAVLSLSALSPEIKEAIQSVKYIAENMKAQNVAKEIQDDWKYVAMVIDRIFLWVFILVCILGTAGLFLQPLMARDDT
# Chain of Neuronal acetylcholine receptor; alpha3/beta2 (P12390 whole entry): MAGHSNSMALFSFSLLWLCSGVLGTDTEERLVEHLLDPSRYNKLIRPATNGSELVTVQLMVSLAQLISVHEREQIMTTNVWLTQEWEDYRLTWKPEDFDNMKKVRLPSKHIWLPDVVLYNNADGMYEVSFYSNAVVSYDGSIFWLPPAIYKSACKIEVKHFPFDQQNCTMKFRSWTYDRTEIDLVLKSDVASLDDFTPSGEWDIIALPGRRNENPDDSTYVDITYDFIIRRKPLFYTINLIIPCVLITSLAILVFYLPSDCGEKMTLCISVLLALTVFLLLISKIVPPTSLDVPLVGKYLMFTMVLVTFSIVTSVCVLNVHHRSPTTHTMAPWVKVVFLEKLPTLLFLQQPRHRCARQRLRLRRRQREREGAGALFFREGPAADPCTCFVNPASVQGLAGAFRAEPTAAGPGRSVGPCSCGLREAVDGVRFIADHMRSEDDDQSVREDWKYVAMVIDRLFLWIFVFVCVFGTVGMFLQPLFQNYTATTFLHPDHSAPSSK
# Chain of Neuronal acetylcholine receptor subunit alpha-7 (Rattus norvegicus, UniProt Q05941) (Q05941 whole entry): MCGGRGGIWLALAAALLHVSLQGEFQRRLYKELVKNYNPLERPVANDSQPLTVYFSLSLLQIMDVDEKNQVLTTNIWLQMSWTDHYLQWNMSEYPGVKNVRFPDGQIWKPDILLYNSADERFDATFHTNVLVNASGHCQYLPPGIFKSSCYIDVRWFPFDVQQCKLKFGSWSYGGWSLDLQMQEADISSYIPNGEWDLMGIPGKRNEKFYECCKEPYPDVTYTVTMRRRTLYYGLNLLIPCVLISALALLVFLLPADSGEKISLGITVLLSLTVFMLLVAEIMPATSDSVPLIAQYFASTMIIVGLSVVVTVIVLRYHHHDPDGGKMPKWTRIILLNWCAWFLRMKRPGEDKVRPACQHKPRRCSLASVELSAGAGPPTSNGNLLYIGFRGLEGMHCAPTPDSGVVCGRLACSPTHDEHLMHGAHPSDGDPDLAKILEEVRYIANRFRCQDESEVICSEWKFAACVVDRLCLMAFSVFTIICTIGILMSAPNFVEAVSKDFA
# Chain of Neuronal acetylcholine receptor; alpha4/beta2 (P09483 whole entry): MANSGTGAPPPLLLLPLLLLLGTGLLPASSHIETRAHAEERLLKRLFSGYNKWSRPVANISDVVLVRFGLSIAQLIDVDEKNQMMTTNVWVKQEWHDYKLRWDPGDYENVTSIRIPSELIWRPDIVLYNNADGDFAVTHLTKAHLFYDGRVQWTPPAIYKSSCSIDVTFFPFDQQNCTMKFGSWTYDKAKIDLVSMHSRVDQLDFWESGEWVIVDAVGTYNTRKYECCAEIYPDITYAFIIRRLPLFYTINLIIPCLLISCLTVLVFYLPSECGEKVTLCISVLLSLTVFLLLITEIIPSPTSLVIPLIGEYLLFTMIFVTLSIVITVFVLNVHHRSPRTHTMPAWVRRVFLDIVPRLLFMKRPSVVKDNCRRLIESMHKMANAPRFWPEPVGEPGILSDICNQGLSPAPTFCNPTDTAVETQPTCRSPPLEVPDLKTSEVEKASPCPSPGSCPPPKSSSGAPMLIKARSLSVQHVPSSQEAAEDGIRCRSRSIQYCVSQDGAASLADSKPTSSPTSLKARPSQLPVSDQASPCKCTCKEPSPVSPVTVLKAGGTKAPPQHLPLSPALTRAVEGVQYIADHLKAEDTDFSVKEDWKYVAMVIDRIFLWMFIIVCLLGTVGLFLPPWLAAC
# Chain of Neuronal acetylcholine receptor; alpha4/beta2 (P12390 whole entry): as the sequence (P12390 whole entry) above
# Chain of Neuronal acetylcholine receptor; alpha4/beta4 (P09483 whole entry): as the sequence (P09483 whole entry) above
# Chain of Neuronal acetylcholine receptor; alpha4/beta4 (P12392 whole entry): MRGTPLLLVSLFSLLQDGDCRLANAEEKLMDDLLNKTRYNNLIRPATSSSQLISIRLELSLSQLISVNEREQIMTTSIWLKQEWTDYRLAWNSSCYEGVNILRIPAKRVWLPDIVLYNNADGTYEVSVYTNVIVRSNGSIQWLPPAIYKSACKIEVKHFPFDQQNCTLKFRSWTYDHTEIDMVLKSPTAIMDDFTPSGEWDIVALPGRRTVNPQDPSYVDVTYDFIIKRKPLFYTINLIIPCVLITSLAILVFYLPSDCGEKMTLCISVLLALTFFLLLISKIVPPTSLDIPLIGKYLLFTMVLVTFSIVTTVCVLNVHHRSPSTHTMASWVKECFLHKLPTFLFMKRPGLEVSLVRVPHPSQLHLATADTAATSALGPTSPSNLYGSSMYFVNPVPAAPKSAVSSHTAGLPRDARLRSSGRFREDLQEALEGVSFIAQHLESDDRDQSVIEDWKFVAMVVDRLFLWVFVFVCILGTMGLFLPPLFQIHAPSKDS
# Chain of Nicotinic acetylcholine receptor alpha9/alpha10 (P43144 whole entry): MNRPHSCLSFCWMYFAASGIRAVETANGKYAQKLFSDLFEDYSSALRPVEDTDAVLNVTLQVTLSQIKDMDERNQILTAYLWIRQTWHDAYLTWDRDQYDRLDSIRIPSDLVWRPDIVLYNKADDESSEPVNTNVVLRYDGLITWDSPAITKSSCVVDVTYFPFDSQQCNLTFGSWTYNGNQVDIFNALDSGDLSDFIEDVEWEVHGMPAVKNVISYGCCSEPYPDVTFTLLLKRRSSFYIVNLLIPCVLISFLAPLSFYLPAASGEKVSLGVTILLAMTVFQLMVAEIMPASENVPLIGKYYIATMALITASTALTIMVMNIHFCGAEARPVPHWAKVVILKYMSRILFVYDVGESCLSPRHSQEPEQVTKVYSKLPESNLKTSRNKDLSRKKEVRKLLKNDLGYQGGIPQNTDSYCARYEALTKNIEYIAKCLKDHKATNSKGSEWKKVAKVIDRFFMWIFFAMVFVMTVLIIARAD
# Chain of Nicotinic acetylcholine receptor alpha9/alpha10 (Q9JLB5 whole entry): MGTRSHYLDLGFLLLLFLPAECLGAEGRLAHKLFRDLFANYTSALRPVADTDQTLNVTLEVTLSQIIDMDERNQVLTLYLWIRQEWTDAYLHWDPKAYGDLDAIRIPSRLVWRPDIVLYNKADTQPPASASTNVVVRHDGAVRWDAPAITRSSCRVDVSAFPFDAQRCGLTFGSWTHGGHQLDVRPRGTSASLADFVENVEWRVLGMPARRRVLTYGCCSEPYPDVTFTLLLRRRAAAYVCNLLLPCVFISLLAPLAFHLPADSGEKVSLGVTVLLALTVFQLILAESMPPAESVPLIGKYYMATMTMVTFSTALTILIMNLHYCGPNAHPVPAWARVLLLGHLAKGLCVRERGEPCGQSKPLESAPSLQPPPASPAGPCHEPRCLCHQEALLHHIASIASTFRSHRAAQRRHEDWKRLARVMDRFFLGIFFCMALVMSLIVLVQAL
smiles,measurement,setting,value
CC[C@H](C)[C@H](N)C(=O)N[C@@H](CCCNC(=N)N)C(=O)N[C@@H](CC(=O)O)C(=O)N[C@@H](CCC(=O)O)C(=O)N[C@H]1CSSC[C@H]2NC(=O)[C@H](C)NC(=O)[C@@H]3CCCN3C(=O)[C@H](CC(N)=O)NC(=O)[C@H](CO)NC(=O)[C@H](CSSC[C@@H](C(=O)N[C@@H](CCCNC(=N)N)C(=O)N[C@@H](CCCNC(=N)N)C(=O)N[C@@H](CCCNC(=N)N)C(=O)O)NC(=O)[C@H](C(C)C)NC(=O)[C@H](Cc3cnc[nH]3)NC(=O)[C@@H]3CCCN3C(=O)[C@H](CC(N)=O)NC(=O)[C@H](CC(N)=O)NC(=O)[C@H](C(C)C)NC(=O)[C@H](CCCNC(=N)N)NC2=O)NC1=O,IC50,[1],18 nM
C[C@@H]1NC(=O)[C@H](C)NC(=O)[C@@H]2CSSC[C@H](NC(=O)CNC(=O)CN)C(=O)N[C@@H](CSSC[C@@H](C(N)=O)NC(=O)[C@H](Cc3ccc(OS(=O)(=O)O)cc3)NC(=O)[C@H](CC(=O)O)NC(=O)[C@H](CCC(N)=O)NC(=O)[C@H](CC(N)=O)NC(=O)[C@H](CC(N)=O)NC1=O)C(=O)N[C@@H](CO)C(=O)N[C@@H](Cc1cnc[nH]1)C(=O)N1CCC[C@H]1C(=O)N[C@@H](C)C(=O)N2,IC50,[1],0.28 nM
"CC[C@H](C)[C@@H]1NC(=O)[C@H](Cc2cnc[nH]2)NC(=O)[C@@H]2CCCN2C(=O)[C@H](CC(N)=O)NC(=O)[C@H](CC(N)=O)NC(=O)[C@H](C(C)C)NC(=O)[C@H](CC(N)=O)NC(=O)[C@@H]2CSSC[C@H](NC(=O)CN)C(=O)N[C@@H](CSSC[C@@H](C(=O)O)NC1=O)C(=O)N[C@@H](CO)C(=O)N[C@@H](CC(=O)O)C(=O)N1CCC[C@H]1C(=O)N[C@@H](C)C(=O)N2 (H-GCCSDPACNVNNPHIC-OH; disulfide 2-8, 3-16)",IC50,[2],100 nM
same,IC50,[3],120 nM
same,IC50,[4],130 nM
same,IC50,[5],7.48 µM
same,IC50,[6],13.7 µM
same,IC50,[7],7.14 µM
same,IC50,[8],200 nM
same,IC50,[9],99 nM
"CC(C)C[C@@H]1NC(=O)[C@H](CC(=O)O)NC(=O)[C@@H]2CCCN2C(=O)[C@H](Cc2cnc[nH]2)NC(=O)[C@H](C)NC(=O)[C@H](CC(N)=O)NC(=O)[C@H](CCCNC(=N)N)NC(=O)[C@@H]2CSSC[C@H](NC(=O)CN)C(=O)N[C@@H](CSSC[C@@H](C(=O)O)NC1=O)C(=O)N[C@@H](CO)C(=O)N[C@@H](CC(=O)O)C(=O)N1CCC[C@H]1C(=O)N1CCC[C@H]1C(=O)N2 (H-GCCSDPPCRNAHPDLC-OH; disulfide 2-8, 3-16)",IC50,[2],200 nM
same,IC50,[3],280 nM
same,IC50,[4],3290 nM
same,IC50,[5],> 10 µM
same,IC50,[6],> 10 µM
same,IC50,[7],> 10 µM
same,IC50,[8],1580 nM
same,IC50,[9],280 nM
"CSCC[C@@H]1NC(=O)[C@H](CC(N)=O)NC(=O)[C@@H]2CSSC[C@H](NC(=O)CN)C(=O)N[C@@H](CSSC[C@@H](C(=O)O)NC(=O)[C@H](Cc3ccc(OS(=O)(=O)O)cc3)NC(=O)[C@H](CC(=O)O)NC(=O)[C@@H]3CCCN3C(=O)[C@H](CC(N)=O)NC(=O)[C@H](CC(N)=O)NC1=O)C(=O)N[C@@H](CO)C(=O)N[C@@H](CC(=O)O)C(=O)N1CCC[C@H]1C(=O)N[C@@H](CCCNC(=N)N)C(=O)N2 (H-GCCSDPRCNMNNPD[sY]C-OH; disulfide 2-8, 3-16)",IC50,[2],30 nM
"C[C@@H]1NC(=O)[C@@H]2CSSC[C@H](NC(=O)CN)C(=O)N[C@@H](CSSC[C@@H](C(=O)N[C@@H](CCCNC(=N)N)C(=O)O)NC(=O)[C@H](Cc3cnc[nH]3)NC(=O)[C@H](CCC(=O)O)NC(=O)[C@H](Cc3cnc[nH]3)NC1=O)C(=O)N[C@@H](CO)C(=O)N[C@@H](CC(N)=O)C(=O)N1CCC[C@H]1C(=O)N1CCC[C@H]1C(=O)N2 (H-GCCSNPPCAHEHCR-OH; disulfide 2-8, 3-13)",IC50,[2],1100 nM
same,IC50,[10],> 10 µM
same,IC50,[1],> 10000 nM
same,IC50,[11],630 nM
same,IC50,[12],> 10 µM
same,IC50,[13],> 10 µM
same,IC50,[14],> 10 µM
same,IC50,[15],> 10 µM
same,IC50,[16],> 10 µM
same,IC50,[17],> 10 µM
same,inhibition,[18],inactive
same,inhibition,[19],inactive
same,inhibition,[20],inactive
same,inhibition,[21],inactive
same,inhibition,[22],inactive
same,inhibition,[23],inactive
"C[C@@H]1NC(=O)[C@@H]2CSSC[C@H](NC(=O)[C@@H](N)CCC(N)=O)C(=O)N[C@@H](CSSC[C@@H](C(N)=O)NC(=O)[C@H](Cc3cnc[nH]3)NC(=O)[C@H](CCC(=O)O)NC(=O)[C@H](Cc3cnc[nH]3)NC1=O)C(=O)N[C@@H](CO)C(=O)N[C@@H](CC(N)=O)C(=O)N1CCC[C@H]1C(=O)N1CCC[C@H]1C(=O)N2 (H-QCCSNPPCAHEHC-NH2; disulfide 2-8, 3-13)",IC50,[2],470 nM
same,IC50,[10],> 10 µM
same,IC50,[1],1560 nM
same,IC50,[11],550 nM
same,IC50,[12],> 10 µM
same,IC50,[13],> 10 µM
same,IC50,[14],> 10 µM
same,IC50,[15],> 10 µM
same,IC50,[16],> 10 µM
same,IC50,[17],> 10 µM
same,inhibition,[18],inactive
same,inhibition,[19],inactive
same,inhibition,[20],inactive
same,inhibition,[21],inactive
same,inhibition,[22],inactive
same,inhibition,[23],inactive
